{"source": "patent US6337340B1", "about": "“Carboxylic acids and isosteres of heterocyclic ring compounds having multiple heteroatoms for vision and memory disorders” (GPI NIL Holdings, Inc., priority 1998, dated 2002)", "key": {"[1]": {"assay": "Clearance (Table V comments)", "format": "in vitro ADME"}, "[2]": {"test_system": "retinal ganglion cell axons", "assay": "Protection of retinal ganglion cell axons from degeneration following optic nerve transection (Table V)", "format": "in vivo, rat", "conditions": "± SEM", "text": "Efficacy of representative compounds from different immunophilin ligand series in protecting retinal ganglion cell axons from degeneration following optic nerve transection is set forth in Table V."}, "FKBP12": {"target": "FKBP12 (Homo sapiens, UniProt P62942)", "sequence (P62942 whole entry, species assumed)": "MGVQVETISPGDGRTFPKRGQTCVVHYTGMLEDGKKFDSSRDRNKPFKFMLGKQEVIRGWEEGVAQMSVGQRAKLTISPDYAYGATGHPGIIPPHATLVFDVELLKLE", "assay": "Ki Test Procedure: inhibition of peptidyl-prolyl isomerase (rotamase) activity, chymotrypsin-coupled assay", "format": "biochemical", "conditions": "apparent Ki; read-out: Ki rotomase", "description": "The inhibition of the prolyl peptidyl cis-trans isomerase activity of FKBP may be measured as an indicator of this affinity.\nThese values are obtained as apparent Ki's.\nThe cis-trans isomerization of an alanine-proline bond in a model substrate, N-succinyl-Ala-Ala-Pro-Phe-p-nitroanilide, is monitored spectrophotometrically in a chymotrypsin-coupled assay, which releases para-nitroanilide from the trans form of the substrate. The inhibition of this reaction caused by the addition of different concentrations of inhibitor is determined, and the data is analyzed as a change in first-order rate constant as a function of inhibitor concentration to yield the apparent Ki values.\nIn a plastic cuvette are added 950 ml of ice cold assay buffer (25 mM HEPES, pH 7.8, 100 mM NaCl), 10 ml of FKBP (2.5 mM in 10 mM Tris-Cl pH 7.5, 100 mM NaCl, 1 mM dithiothreitol), 25 ml of chymotrypsin (50 mg/ml in 1 mM HCl) and 10 ml of test compound at various concentrations in dimethyl sulfoxide. The reaction is initiated by the addition of 5 ml of substrate (succinyl-Ala-Phe-Pro-Phe-para-nitroanilide, 5 mg/ml in 2.35 mM LiCl in trifluoroethanol).\nThe absorbance at 390 nm versus time is monitored for 90 seconds using a spectrophotometer and the rate constants are determined from the absorbance versus time data files."}, "[3]": {"test_system": "retinal ganglion cells and optic nerve axons", "assay": "In vivo retinal ganglion cell and optic nerve axon tests after optic nerve transection", "set-up": "species or system Sprague Dawley rats", "conditions": "90 days after transection", "text": "A second groups received the same neuroimmunogphilin FKBP ligand dose for 28 days.\nAll eyes and optic nerves stumps were removed."}, "retinal ganglion cells": {"test_system": "retinal ganglion cells", "assay": "Retinal ischemia by raised intraocular pressure", "format": "in vivo, rat", "text": "Retinal ganglion cells were retrogradely labeled in adult rate by bilateral injection of fluorogold in their lateral geniculate nuclei. Labeled ganglion cells in the normal rat retina appear as white profiles against the dark background (FIG. 1A). Complete retinal ischemia was produced by infusing normal saline solution into the retinal vitreous cavity of each eye until the intraocular pressure exceeded arterial blood pressure. 28 days after the ischemic episode extensive degeneration of retinal ganglion cell was evidenced by massive reduction in the density of fluorogold labeled cells (FIG. 1B).\nOptic nerves from vehicle treated cases examined 28 days after a 1 hour retinal ischemic episode are characterized by a decreased density of optic nerve axons and the appearance of numerous degenerating myelin figures (bright white filled circles)."}, "retina": {"test_system": "retina", "assay": "Streptozotocin induced diabetes, retinal neovascularization and neuron loss", "format": "in vivo"}, "[4]": {"test_system": "streptozotocin-induced diabetic rat", "assay": "Streptozotocin-induced diabetic sensory neuropathy, hot plate and tail flick", "format": "in vivo, Male Wistar rats", "conditions": "lesioned animals treated for 6 weeks at 10 mg/kg s.c.", "procedure": "The procedure involved using Male Wistar rats which were given a single injection of streptozotocin (65 mg/kg i.v.). Blood glucose levels were determined weekly for the first three weeks and on the last week of the experiment. Animals were evaluated weekly for signs of sensory neuropathy using the conventional hot plate and tail flick apparatus test procedures."}, "aged rodents": {"test_system": "aged rodents", "assay": "Morris watermaze spatial learning and memory in aged rodents", "format": "in vivo, C57BL/6N-Nia mice", "conditions": "daily 10 mg/kg", "text": "The Morris watermaze is widely used for assessing spatial memory formation and retention in experimental animals. The test depends on the animal's ability to utilize spatial visual information in order to locate a submerged escape platform in a water tank. It is important that the tank itself be as devoid of specific visual features as possible—thus, it is always circular in shape, the sides are kept smooth and in uniform dull colors, and the water is rendered opaque with nontoxic watercolor pigment or powdered milk. This is to ensure that the animal navigates only by the use of more distant visual cues, or by the use of intra-maze cues specifically provided by the experimenter.\nThe animals' path, speed, and swim time are tracked with a ceiling camera for later computerized analysis. Over the course of several successive trials, spatial learning can therefore be defined as a drop of distance swum, or time elapsed, from placement in the tank until escape onto the invisible platform. […]\nRetention testing began after 3 weeks of dosing using the same methods as the acquisition phase. Swim Distances (cm) were analyzed in a 7×5 ANOVA including Groups and Blocks (1-5) as factors in the analysis, treating Blocks as a repeated measure."}, "[5]": {"test_system": "retinal ganglion cells and optic nerve axons", "assay": "In vivo retinal ganglion cell and optic nerve axon tests after optic nerve transection", "set-up": "species or system Sprague Dawley rats", "conditions": "for ON axon Count: axonal density multiplied by ON area; for Distal optic nerve myelin basic protein Density: shrinkage: cross sectional area vs sham"}, "[6]": {"conditions": "28 day treatment beginning 8 weeks after onset of streptozotocin induced diabetes"}, "[7]": {"conditions": "GPI 1046 first 14 days, 90 days after transection"}, "[8]": {"conditions": "ONT, GPI 1046 14 days, 90 days after transection"}, "[9]": {"conditions": "ONT, GPI 1046 28 days, 90 days after transection"}}, "note": "Marks after values point to notes of the source that are not given here.", "data": [{"molecule": "CCC(C)(C)C(=O)C(=O)N1CCC[C@H]1C(=O)O", "note": "[L]", "values": [{"measurement": "Clearance", "setting": "[1]", "result": 5.2, "unit": "µL/min"}, {"measurement": "RT97+ RGC axon density 11 days after ON transection (36 ON axon rescued)", "setting": "[2]", "result": "7.8% ± 3.0% SEM"}]}, {"molecule": "CCC(C)(C)C(=O)C(=O)N1CCCCC1C(=O)OC(CCc1ccccc1)CCc1ccccc1", "note": "(stereo not shown) [E]", "values": [{"measurement": "Clearance", "setting": "[1]", "result": 41.8, "unit": "µL/min"}, {"measurement": "RT97+ RGC axon density 11 days after ON transection (36 ON axon rescued)", "setting": "[2]", "result": "56.6% ± 9.4% SEM"}]}, {"molecule": "CN(C)C(=O)N1CCC[C@H]1C(=O)SCCCc1ccccc1", "note": "[N]", "values": [{"measurement": "Clearance", "setting": "[1]", "result": 21.9, "unit": "µL/min"}]}, {"molecule": "O=C(SCCCc1ccccc1)[C@@H]1CCCN1S(=O)(=O)Cc1ccccc1", "note": "[C]", "values": [{"measurement": "Clearance", "setting": "[1]", "result": 31.1, "unit": "µL/min"}, {"measurement": "RT97+ RGC axon density 11 days after ON transection (36 ON axon rescued)", "setting": "[2]", "result": "60.4% ± 3.1% SEM"}]}, {"molecule": "CCC(C)(C)C(=O)C(=O)N1CCC[C@H]1C(=O)CCCCc1cccnc1", "note": "[J]", "values": [{"measurement": "Clearance", "setting": "[1]", "result": 1.5, "unit": "µL/min"}]}, {"molecule": "O=C(SCCCc1ccccc1)[C@@H]1CCCN1C(=O)NC12CC3CC(CC(C3)C1)C2", "note": "[B]", "values": [{"measurement": "Clearance", "setting": "[1]", "result": 7, "unit": "µL/min"}, {"measurement": "RT97+ RGC axon density 11 days after ON transection (36 ON axon rescued)", "setting": "[2]", "result": "100.0% ± 5.2% SEM"}]}, {"molecule": "CCC(C)(C)C(=O)C(=O)N1CCCC[C@H]1C(=O)SCCC(c1ccccc1)c1ccccc1", "note": "[K]", "values": [{"measurement": "Clearance", "setting": "[1]", "result": 4.5, "unit": "µL/min"}]}, {"molecule": "CCC(C)(C)C(=O)C(=O)N1CCS[C@H]1C(=O)OCCCc1cccnc1", "note": "[F]", "values": [{"measurement": "RT97+ RGC axon density 11 days after ON transection (36 ON axon rescued)", "setting": "[2]", "result": "55.1% ± 5.9% SEM"}]}, {"molecule": "CCC(C)(C)C(=O)C(=O)N1CCC[C@H]1C(=O)SCCC(c1ccccc1)c1ccccc1", "note": "[M]", "values": [{"measurement": "Clearance", "setting": "[1]", "result": 12.5, "unit": "µL/min"}, {"measurement": "RT97+ RGC axon density 11 days after ON transection (36 ON axon rescued)", "setting": "[2]", "result": "−6.3% ± 3.9% SEM"}]}, {"molecule": "GPI 1046", "values": [{"measurement": "Ki", "setting": "FKBP12", "result": 7.5, "unit": "nM"}, {"measurement": "Clearance", "setting": "[1]", "result": 63.8, "unit": "µL/min"}, {"measurement": "RT97+ RGC axon density 11 days after ON transection (36 ON axon rescued)", "setting": "[2]", "result": "60.5% ± 3.9 SEM"}, {"measurement": "preservation of axons of protected neurons in the proximal stump", "setting": "[3]; Example 14, 10 mg/kg/day s.c. 28 days, RT97 immunohistochemistry", "result": "preserved the axons of virtually all protected neurons"}, {"measurement": "fascicular pattern of myelin labeling in the distal stump", "setting": "[3]; GPI 1046 first 28 days", "result": "dramatic protection of the fascicular pattern of myelin labeling"}, {"measurement": "pattern of myelin degeneration in the proximal stump (myelin basic protein immunohistochemistry)", "setting": "[3]; GPI 1046 first 28 days", "result": "dramatic preservation of the fascicular staining pattern"}, {"measurement": "% surviving RGCs with ON axons", "setting": "[3]; ONT, GPI 1046 28 days", "result": 81.4, "unit": "%"}, {"measurement": "ON head area (% sham)", "setting": "[3]; ONT, GPI 1046 28 days", "result": 95, "unit": "%*"}, {"measurement": "Spared RGC population", "setting": "[3]; ONT, GPI 1046 28 days", "result": "28,096*"}, {"measurement": "increased ON axon density", "setting": "[3]; ONT, GPI 1046 28 days, adjusted for optic nerve diameter", "result": 5.0, "unit": "X"}, {"measurement": "Distal optic nerve myelin basic protein Density: myelin preservation", "setting": "[3]; ONT, GPI 1046 28 days, cross sectional area multiplied by myelin density", "result": "99% myelin % myelin preservation"}, {"measurement": "Proximal optic nerve myelin basic protein Density", "setting": "[3]; ONT, GPI 1046 28 days, ± SEM", "result": "70 ± 6.3", "unit": "SEM % recovery"}, {"measurement": "protection of fluorogold labeled retinal ganglion cells", "setting": "retinal ganglion cells; 10 mg/kg s.c. 1 hour prior and 10 mg/kg/day for next four days, 28 days after ischemic episode", "result": "noticeable protection of a large proportion of the vulnerable ganglion cell population"}, {"measurement": "density of degenerating myelin figures in optic nerve", "setting": "retinal ganglion cells; 28 days after 1 hour retinal ischemic episode", "result": "dramatically decreased the density of degenerating myelin figures"}, {"measurement": "protection of optic nerve axons from ischemic degeneration", "setting": "retinal ganglion cells; 28 days after 1 hour retinal ischemic episode, toluidine blue staining", "result": "protected the majority of optic nerve axons from degeneration"}, {"measurement": "loss of neurons in the INL and GCL", "setting": "retina; 28 day treatment beginning 8 weeks after onset of diabetes, vs streptozotocin/vehicle controls", "result": "appeared to decrease the loss of neurons in both the INL and GCL"}, {"measurement": "neovascularization in the PR, ONL, OPL and INL", "setting": "retina; [6]", "result": "reduced neovascularization"}, {"measurement": "neuronal loss in the ONL", "setting": "retina; [6]", "result": "did not appear to protect against neuronal loss in the ONL"}, {"measurement": "hot plate and tail flick latency", "setting": "[4]", "result": "improvement in latency"}, {"measurement": "spatial memory performance (swim distance, retention testing)", "setting": "aged rodents; aged impaired mice, retention testing after 3 weeks of dosing", "result": "significantly enhanced spatial memory performance"}, {"measurement": "difference between young and aged impaired GPI-1046 treated groups, retention phase", "setting": "aged rodents; F1.69=3.09, P=0.08", "result": "no longer any statistically significant difference"}, {"measurement": "ganglion cells population spared (perikaryal neuroprotection)", "setting": "[5]; Example 14, 10 mg/kg/day s.c. 28 days, sacrificed 90 days after transection", "result": 25, "unit": "%"}, {"measurement": "density of myelin in the distal stump", "setting": "[5]; [7]", "result": "slightly increase the density of myelin"}, {"measurement": "pattern of myelin degeneration in the proximal stump (myelin basic protein immunohistochemistry)", "setting": "[5]; [7]", "result": "did not alter the pattern of myelin degeneration"}, {"measurement": "shrinkage of the distal stump", "setting": "[5]; [7]", "result": "did not protect against shrinkage"}, {"measurement": "cross sectional shrinkage of the distal stump", "setting": "[5]; GPI 1046 first 28 days, 90 days after transection", "result": "prevented cross sectional shrinkage"}, {"measurement": "% RGCs Rescued", "setting": "[5]; [8]", "result": 5.3, "unit": "%"}, {"measurement": "% surviving RGCs with ON axons", "setting": "[5]; [8]", "result": 33.6, "unit": "%"}, {"measurement": "ON head area (% sham)", "setting": "[5]; [8]", "result": 76, "unit": "%"}, {"measurement": "Spared RGC population", "setting": "[5]; [8]", "result": "20,275"}, {"measurement": "increased ON axon density", "setting": "[5]; ONT, GPI 1046 14 days, 90 days after transection, adjusted for optic nerve diameter", "result": 1.5, "unit": "X"}, {"measurement": "ON axon Count", "setting": "[5]; [8]", "result": 6820}, {"measurement": "Distal optic nerve myelin basic protein Density: myelin loss", "setting": "[5]; ONT, GPI 1046 14 days, 90 days after transection, cross sectional area multiplied by myelin density", "result": 47, "unit": "% loss"}, {"measurement": "Distal optic nerve myelin basic protein Density: shrinkage", "setting": "[5]; [8]", "result": 33, "unit": "% shrinkage"}, {"measurement": "ON Axon density", "setting": "[5]; ONT, GPI 1046 14 days, 90 days after transection, mean ± SEM RT97 labeled axons in 200 μm × 200 μm region", "result": "569 ± 23"}, {"measurement": "Proximal optic nerve myelin basic protein Density", "setting": "[5]; ONT, GPI 1046 14 days, 90 days after transection, ± SEM", "result": "1.6 ± 3.0", "unit": "SEM % recovery"}, {"measurement": "RGC Counts", "setting": "[5]; ONT, GPI 1046 28 days 10 mg/kg/day sc, 90 days after transection, mean density ± SEM of Fluoro-gold labeled RGC in 400 μm × 400 μm gridfields", "result": "67.9 ± 5.8"}, {"measurement": "ON axon Count", "setting": "[5]; [9]", "result": "22,861*"}, {"measurement": "Distal optic nerve myelin basic protein Density: shrinkage", "setting": "[5]; [9]", "result": 56, "unit": "% less % less shrinkage"}, {"measurement": "protection of optic nerve axons", "setting": "[5]; proximal stump, GPI 1046 first 14 days after transection, 90 days", "result": 5.3, "unit": "%"}]}, {"molecule": "O=C(OCCCCc1ccccc1)[C@@H]1CCCCN1S(=O)(=O)Cc1ccccc1", "note": "[D]", "values": [{"measurement": "RT97+ RGC axon density 11 days after ON transection (36 ON axon rescued)", "setting": "[2]", "result": "58.4% ± 6.4% SEM"}]}]}
